Experimental findings from patent US12565485B2, “Solid forms of 1-((S)-4-((R)-7-(6-amino-4-methyl-3-(trifluoromethyl)pyridin-2-yl)-6-chloro-8-fluoro-2-(((s)-1-methylpyrrolidin-2-yl)methoxy)quinazolin-4-yl)-3-methylpiperazin-1-yl)prop-2-en-1-one” (Genentech, Inc., priority 2022, dated 2026) are described below.

The structures appear in SMILES notation.

What all share (type): physicochemical
Data set [1] in a line: Form change before and after drying (XRPD). The settings on record: for Form change before and after drying: air dried at RT. On the procedure: The wet sample was vacuum dried at RT for 3 hrs. […] A solid was obtained with a yield of 62.2%. […] (peak temperature). Based on the integrals in NMR spectrum, the stoichiometric ratio of adipic acid:freebase was determined to be 1.06. A peak of EtOAc was observed. Around 0.07 molar EtOAc (0.8 wt %) was detected, which was consistent with TGA weight loss.
(peak), and one small endotherm at 158.8° C. […] Based on the integrals, the stoichiometric ratio of adipic acid:freebase was determined to be 1.65.
(peak temperature). Based on the integrals, the stoichiometric ratio of adipic acid:freebase was determined to be 1.06. Peak of THF was observed. Around 0.17 molar THF (1.9 wt %) was detected, which was consistent with TGA weight loss.
(§1) Compound B Form A was obtained from an acetone system and the sample was air dried at RT. […] (peak temperature) before the possible overlapped peak with peak temperature at 156.3° C. (FIG. 12). Based on the integrals, the stoichiometric ratio of fumaric acid:freebase was determined to be 1.03. A peak of acetone was observed and approximately 0.49 molar acetone (4.4 wt %) was detected. The HPLC purity of Compound B Form A was determined to be 93.56 area %. […] Around 0.39 molar acetone (3.5 wt %) was still detected. One endotherm at 58.7° C. and an overlapped peak with peak temperature at 157.1° C. were still observed on the sample obtained after heating. The first endotherm might be caused by re-adsorption of moisture. Since ˜3.5 wt % acetone was still detected from NMR, Compound B Form A is expected to be an acetone/H2O co-solvate.
Compound C Form A was obtained from EtOAc system and the sample was air dried at RT. […] HPLC purity of Compound C Form A was determined to be 95.18 area %.

Data set [2] is described as follows: Heating under N2 protection (VT-XRPD), form change. On the procedure:
as §1, with “co-solvate. […]” for “co-solvate.”

A short description of data set [3]: Static storage at 25° C./97% RH and 40° C./75% RH. The settings on record: after 7 days. On the procedure:
Amorphous material of Compound A (mono adipate salt) was successfully prepared through freeze drying. Characterisation of the initial batch of samples were all shown to be amorphous by XRPD and the NMR's contained ca. 1.1 eq. adipic acid with varying quantities of residual solvent, except for acetonitrile/water (1:1) which contained no residual solvent. […] Static storage at 25° C./97% RH and 40° C./75% RH after 7 days were all shown to have deliquesced.

Data set [4] is described as follows: Slurry competition between Compound A Form A and B. On the procedure:
The suspensions were stirred at a speed of 750 rpm and tested by XRPD in transmission mode.

Data set [5] can be described thus: VH-XRPD analysis / transitions of forms at varying relative humidity. The following applies: dehydrated. An excerpt:
FIG. 19. The sample then reverts to the original form upon reaching 30% RH. […] Transitions of Forms of Compound A at varying RH.

Data set [6] in a line: Approximate solubility at RT (stepwise solvent addition until visually dissolved). On the procedure:
The solubility of starting material was estimated at RT in 20 solvents. For each experiment, approximately 2 mg of sample was added into a 3-mL glass vial. Solvents in Table 32 were then added stepwise (50, 50, 200, 700 μL) into the vials until the solids were dissolved visually or a total volume of 1 mL was reached.

The mark [7] stands for this setting: heating to 100° C. under N2 protection, cooled down and exposed to ambient conditions.

On to `C=CC(=O)N1CCN(c2nc(OC[C@@H]3CCCN3C)nc3c(F)c(-c4nc(N)cc(C)c4C(F)(F)F)c(Cl)cc23)[C@@H](C)C1.O=C(O)/C=C/C(=O)O` (atropisomer, axis not shown) [Compound B Form A], for which the “Form change before and after drying” value in data set [1] was “No form change was observed”. Besides, the “Form change after heating” value in data set [2] (setting [7]) is “no form change was observed”.
As for `C=CC(=O)N1CCN(c2nc(OC[C@@H]3CCCN3C)nc3c(F)c(-c4nc(N)cc(C)c4C(F)(F)F)c(Cl)cc23)[C@@H](C)C1.CC(=O)O` (atropisomer, axis not shown) [Compound F Form A], in data set [2] (setting [7]), the “Form change after heating” value is recorded as “no form change was observed”.
As to `C=CC(=O)N1CCN(c2nc(OC[C@@H]3CCCN3C)nc3c(F)c(-c4nc(N)cc(C)c4C(F)(F)F)c(Cl)cc23)[C@@H](C)C1.O=C(O)CCCCC(=O)O` [Amorphous material of Compound A], the Static storage observation entry in data set [3] (25° C./97% RH) and in data set [3] (40° C./75% RH) was “deliquesced” throughout.
In the case of `C=CC(=O)N1CCN(c2nc(OC[C@@H]3CCCN3C)nc3c(F)c(-c4nc(N)cc(C)c4C(F)(F)F)c(Cl)cc23)[C@@H](C)C1.O=C(O)CCCCC(=O)O` [Compound A Form A + B], the “Slurry competition result (XRPD form)” value is “Compound A Form A” in data set [4] (IPA, 5° C.); “turned to Compound A Form A” in data set [4] (IPA, 5° C., listed as Compound A Form A+B); “Compound A Form A” in data set [4] (IPA, −20° C.); “turned to Compound A Form A” in data set [4] (IPA, −20° C., listed as Compound A Form A+B); “Compound A Form A” in data set [4] (Toluene, 5 to RT (RT for 18 days)); “Compound A Form A was observed” in data set [4] (Toluene, 5 to RT (RT for 18 days), listed as Compound A Form A+B). Besides, the “Slurry competition result (XRPD form)” value in data set [4] (Toluene, 5° C., after 5 days) is “a mixture of Compound A Form A+B was observed”.
As for `C=CC(=O)N1CCN(c2nc(OC[C@@H]3CCCN3C)nc3c(F)c(-c4nc(N)cc(C)c4C(F)(F)F)c(Cl)cc23)[C@@H](C)C1` [Compound A Form B], in data set [1] (air drying at RT overnight), the “Form change after drying” value is given as “No form change was observed”. The “Form change after heating” value in data set [2] (heating to 90° C. under N2 protection) is on record as “no form change was observed”.
On to `C=CC(=O)N1CCN(c2nc(OC[C@@H]3CCCN3C)nc3c(F)c(-c4nc(N)cc(C)c4C(F)(F)F)c(Cl)cc23)[C@@H](C)C1` [Compound A Form D], for which the Form after dehydration result in data set [5] is listed as “formed Compound A Form C”.
As for `C=CC(=O)N1CCN(c2nc(OC[C@@H]3CCCN3C)nc3c(F)c(-c4nc(N)cc(C)c4C(F)(F)F)c(Cl)cc23)[C@@H](C)C1` [Compound C Form A], the “Form change before and after drying” value in data set [1] is reported as “No form change was observed”. Moreover, the “Form change after heating” value in data set [2] (heating to 100° C. under N2 protection, cooled down and exposed to ambient conditions, listed as Form A of Compound C) is listed as “no form change was observed”.
Take `C=CC(=O)N1CCN(c2nc(OC[C@@H]3CCCN3C)nc3c(F)c(-c4nc(N)cc(C)c4C(F)(F)F)c(Cl)cc23)[C@@H](C)C1` [starting material]: the Solubility result in data set [6] (1,4-Dioxane) is given as “S > 38.0 mg/mL”; in data set [6] (2-MeTHF) it was “S > 40.0 mg/mL”; in data set [6] (Acetone), “S > 40.0 mg/mL”; in data set [6] (Anisole) it was “S > 38.0 mg/mL”; in data set [6] (CPME), “S > 40.0 mg/mL”; in data set [6] (DCM), “S > 38.0 mg/mL”. Also, the Solubility entry in data set [6] (DMSO) is reported as “S > 38.0 mg/mL”; in data set [6] (EtOAc) it was “S > 40.0 mg/mL”; in data set [6] (H2O), “S < 2.1 mg/mL”; in data set [6] (IPAc), “S > 40.0 mg/mL”; in data set [6] (MEK), “S > 46.0 mg/mL”; in data set [6] (MIBK), “S > 42.0 mg/mL”. In addition, the Solubility result was “S > 42.0 mg/mL” in data set [6] (MeOH), “S > 44.0 mg/mL” in data set [6] (THF), “S > 40.0 mg/mL” in data set [6] (Toluene) and “S < 2.0 mg/mL” in data set [6] (n-Heptane).
